We go through one molecule from PMC9227536, “Prediction of Pharmacokinetics of IDP-73152 in Humans Using Physiologically-Based Pharmacokinetics” (Pharmaceutics, 2022).

A short description of the series: Metabolic stability in liver microsomes, mouse. The class given is in vitro ADME. The protocol:
In this study, the metabolic stability of IDP-73152 in microsomes from mice, rats, dogs, and humans, as well as rat hepatocytes, was determined. For a microsomal incubation study, the incubation mixtures, containing mouse, rat, dog, or human liver microsomes at a protein concentration of 0.5 mg/mL, 3.3 mM MgCl2, and 1.3 mM NADPH, in a 100 mM potassium phosphate buffer (pH 7.4), were preincubated for 3 min at 37 °C. In parallel, a control incubation mixture (i.e., identical composition to that of the incubation mixture without NADPH) was also prepared for comparison. The reaction was initiated by the addition of a 10 × solution of IDP-73152 (final concentration in mixtures of 1 μM) to the incubation mixtures or the control incubation mixtures. The mixtures were incubated in a shaking water bath (37 °C, 90 rpm). Aliquots (30 μL) were collected at 0, 15, 30, and 45 min from the mixture and the reaction was terminated by the addition of a 4-fold volume of ice-cold acetonitrile to the sample. The mixture was then vortexed for 5 min and centrifuged for 10 min at 10,000× g. The supernatant was collected and stored at -80 °C until the analysis. For the hepatocyte incubation study, rat hepatocytes were freshly prepared using the two-step collagenase perfusion method with slight modifications. After the isolation, cell viability during the preparation process was first determined by a trypan blue exclusion assay prior to the stability study. The preparation was considered adequate for subsequent studies if the viability was greater than 80%. When appropriate, the hepatocytes were resuspended in Williams' media E containing 10% fetal bovine serum, 1% penicillin-streptomycin, and 0.01% insulin-transferrin-selenium (i.e., 10 mg/mL insulin, 5.5 mg/mL transferrin, and 5 mg/mL selenium) at pH 7.4. The reaction was carried out with the hepatocyte suspension prepared at 1 × 10^6 cells/mL (0.5 mL) and initiated by the addition of equal volume of IDP-73152 solution (i.e., final concentration of the compound at 1 μM in 0.5 × 10^6 cells/mL of hepatocytes) to the hepatocyte suspension. […] Assuming first-order disappearance kinetics, the slope k of the logarithmically transformed IDP-73152 concentration in the sample versus time plot was determined by the linear regression analysis of the data. The total intrinsic clearance (CLint,mic, μL/min/mg protein for microsomal incubation study and CLint,hep, μL/min/million cells for hepatocytes incubation study) was then calculated using the following equations:(4) CLint, mic=k×Volume of incubation medium (μL)/Protein in incubation medium (mg) (5) CLint,hep=k×Volume of incubation (μL)/Number of cells in incubation (×10^6) The unbound intrinsic clearance, with respect to the whole liver ([…]), was then estimated for the two cases. […]

SMILES strings stand for the structures.

Turning to `CC(C)(C)[C@H](NC(=O)[C@H](CC1CCCC1)CN(O)C=O)C(=O)N1CCC(NCc2cc(F)c(F)cc2F)CC1` [IDP-73152], for the setting “mice, from microsomal clearance, well-stirred model”, the “hepatic ER (extraction ratio)” value came out at 0.102 ± 0.002. Besides, where the note is “mice, scaled up to the whole liver from microsomes”, the “CLu,int,H” value amounted to 0.539 ± 0.011 L/h. The CLhep predicted at 1 μM (mouse, liver microsomes, pH 7.4, mice, read-out: CLh calculated from the CLint,mic (converted)) is 22.7 mL/min/kg. The microsomal CLint at 1 μM (mouse, pH 7.4, mice liver microsomes 0.5 mg/mL, 1 μM, read-out: CLint,mic) was 80.1 ± 1.7 µL/min/mg.
